Measurements published in PMC9201508, “Mechanism of CK2 Inhibition by a Ruthenium-Based Polyoxometalate” (Frontiers in Molecular Biosciences, 2022).
“Also recorded” adds a separate entry of the source. Each block holds one compound with its values, some of them ahead of it.

Legend:
[1] = molecular target: T1, full-length CK2α (FL-CK2α) (Homo sapiens, UniProt P68400); assay: Radioactive kinase assay, CK2-tide substrate, full-length CK2α; format: biochemical; conditions: CK2-tide substrate 0.1 mM, 20 μM ATP, pH 7.5; mean ± SEM
T1 construct: made in house
T1 sequence (P68400 whole entry): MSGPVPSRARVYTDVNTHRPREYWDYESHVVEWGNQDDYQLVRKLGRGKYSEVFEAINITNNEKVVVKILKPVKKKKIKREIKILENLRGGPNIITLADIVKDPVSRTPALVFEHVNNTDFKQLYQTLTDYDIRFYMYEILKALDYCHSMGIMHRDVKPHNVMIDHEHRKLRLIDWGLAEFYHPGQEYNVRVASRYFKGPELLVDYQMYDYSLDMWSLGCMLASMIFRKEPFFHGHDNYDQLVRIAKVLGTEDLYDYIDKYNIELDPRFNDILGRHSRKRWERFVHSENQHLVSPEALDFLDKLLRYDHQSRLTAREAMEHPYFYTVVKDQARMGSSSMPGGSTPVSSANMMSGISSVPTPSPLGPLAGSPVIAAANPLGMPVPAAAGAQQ
Experimental: (§1) For IC50 (concentrations inducing 50% inhibition) analysis, recombinant tetrameric CK2 (α2β2), or C-terminal-deleted CK2α (CK2α^1–336), or full length CK2α (7.5 ng) were incubated with 0.1 mM synthetic peptide substrate RRRADDSDDDDD (CK2-tide), in a phosphorylation buffer containing 50 mM Tris-HCl pH 7.5, 10 mM MgCl2, 20 μM [γ-^33P]ATP (1,000–2,000 cpm/pmol), in a final volume of 20 μl, with increasing concentrations of the inhibitor. In the case of tetrameric CK2, 0.1 M NaCl was also present in the phosphorylation mixture. Controls were performed in the absence of any inhibitor, but with equal volume of vehicle (H2O). Reactions were performed at 30°C for 12 min and stopped by sample absorption on phospho-cellulose papers. Papers were washed three times with 75 mM phosphoric acid and counted in a scintillation counter (PerkinElmer). In the case of casein substrate (used at 0.05 mg/ml concentration), reactions were stopped by the addition of Laemmli loading buffer, samples were analyzed by 11% SDS-PAGE, and radioactive bands were detected and quantified by digital autoradiography (Cyclone plus storage phosphor system, PerkinElmer). IC50 calculation was obtained by analysis of the results with GraphPad Prism 7.0a software.

[2] = Stability monitored by UV-vis in buffered aqueous environment; format: physicochemical; conditions: buffered/saline aqueous environments, up to pH 8.5, over 24 h
Experimental: Na10[Ru4(H2O)4(μ-O)4(μ-OH)2(γ-SiW10O36)2], Ru4POM, was prepared following a published procedure ([Galiano et al., 2021]). Ru4POM identity was confirmed by FTIR, while its stability was monitored by UV-vis, by using a Cary 100 instrument (Varian), in buffered aqueous environment (25 mM Tris, pH 8.5) over 24 h (Supplementary Figure S6).
Suppl. Fig. 6. UV-vis spectrophotometric monitoring of Ru4POM (5µM) stability in 25 mM Tris and
500 mM NaCl (pH=8.5) over time (up to 24 h). A quartz cuvette with path length 1 cm was used.
(1 picture or pasted object on this page, not shown here)

recombinant CK2α = test system: T2, recombinant CK2α; assay: Radioactive phosphorylation assay at different pH and NaCl concentration; format: biochemical; conditions: 5 nM Ru4POM
T2 construct: made in house
Experimental: as §1, with “[…],” for “in a phosphorylation buffer containing 50 mM Tris-HCl pH 7.5,”, “In the case of tetrameric CK2, 0.1 M NaCl was also present in the phosphorylation mixture.” left out

[3] = molecular target: T3, C-terminal-deleted CK2α (CK2α 1-336) (Homo sapiens, UniProt P68400); assay: Radioactive kinase assay, CK2-tide substrate, C-terminal truncated CK2α; format: biochemical; conditions: CK2-tide substrate 0.1 mM, 20 μM ATP, pH 7.5, mean ± SEM
T3 construct: Human CK2α (residues 1-336) was produced as previously reported; made in house; host or cells: E. coli BL21-DE3
T3 sequence (P68400 1-336): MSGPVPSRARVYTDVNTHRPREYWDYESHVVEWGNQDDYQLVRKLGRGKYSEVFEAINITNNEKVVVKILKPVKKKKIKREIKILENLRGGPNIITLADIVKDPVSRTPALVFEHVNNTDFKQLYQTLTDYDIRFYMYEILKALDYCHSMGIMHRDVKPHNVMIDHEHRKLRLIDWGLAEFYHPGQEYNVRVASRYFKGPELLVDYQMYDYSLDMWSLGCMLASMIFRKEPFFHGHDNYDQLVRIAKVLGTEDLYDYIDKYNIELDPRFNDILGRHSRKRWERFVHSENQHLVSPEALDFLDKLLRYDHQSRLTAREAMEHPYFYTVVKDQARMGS
Experimental: (§2) Recombinant full-length CK2α and tetrameric CK2 (α2β2) [produced as in ([Venerando et al., 2013])] were kindly provided by Dr. Andrea Venerando (University of Parma, Italy). Human CK2α (residues 1-336) was produced as previously reported ([Papinutto et al., 2012]). Briefly, after expression in E. coli BL21-DE3, the protein was purified by two chromatographic steps, with heparin affinity chromatography (5 ml HiTrap Eparin HP column, GE Healthcare) and size-exclusion chromatography (HiLoad 16/60 Superdex 75 pg column, GE Healthcare). Protein eluted in 25 mM Tris, 500 mM NaCl, 1 mM DTT, pH = 8.5 was concentrated to 13.3 mg/ml, flash-frozen in liquid nitrogen and stored at −80°C.
For IC50 (concentrations inducing 50% inhibition) analysis, recombinant tetrameric CK2 (α2β2), or C-terminal-deleted CK2α (CK2α^1–336), or full length CK2α (7.5 ng) were incubated with 0.1 mM synthetic peptide substrate RRRADDSDDDDD (CK2-tide), in a phosphorylation buffer containing 50 mM Tris-HCl pH 7.5, 10 mM MgCl2, 20 μM [γ-^33P]ATP (1,000–2,000 cpm/pmol), in a final volume of 20 μl, with increasing concentrations of the inhibitor. In the case of tetrameric CK2, 0.1 M NaCl was also present in the phosphorylation mixture. Controls were performed in the absence of any inhibitor, but with equal volume of vehicle (H2O). […]

CK2 [4] = molecular target: T4, CK2 (Homo sapiens, UniProt P68400); assay: Radioactive kinase assay with casein as substrate; format: biochemical; conditions: casein 0.05 mg/ml replaced CK2-tide
T4 construct: made in house
T4 sequence (P68400 1-336): T3 sequence (P68400 1-336)
Experimental: as §1

tetrameric CK2 (α2β2) = molecular target: T5, tetrameric CK2 (α2β2) (Homo sapiens, UniProt P68400); assay: Radioactive kinase assay, CK2-tide substrate, tetrameric holoenzyme; format: biochemical; conditions: 0.1 M NaCl present, mean ± SEM
T5 construct: made in house
T5 sequence (P68400 whole entry): as the sequence (P68400 whole entry) above
T5 sequence (P67870 2-215 partner limits assumed): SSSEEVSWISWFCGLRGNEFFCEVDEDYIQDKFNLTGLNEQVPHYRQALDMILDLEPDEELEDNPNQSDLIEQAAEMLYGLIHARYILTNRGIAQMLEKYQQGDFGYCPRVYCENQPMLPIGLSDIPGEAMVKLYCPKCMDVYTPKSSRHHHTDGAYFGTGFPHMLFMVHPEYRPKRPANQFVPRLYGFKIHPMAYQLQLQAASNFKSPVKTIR
Experimental: as §1

CK2 [5] = molecular target: T4, CK2; assay: Kinetics analysis (Michaelis-Menten) with increasing CK2-tide or casein; format: biochemical
Experimental: as §1
For kinetics analysis, the assays were performed with increasing concentrations of CK2-tide or casein, in the phosphorylation buffer described above, but with 100 μM ATP concentration.

CK2α = molecular target: T6, CK2α (Homo sapiens, UniProt P68400); assay: Isothermal titration calorimetry; format: binding; conditions: 25 mM Tris, 500 mM NaCl
T6 construct: Human CK2α (residues 1-336) was produced as previously reported; made in house; host or cells: E. coli BL21-DE3
T6 sequence (P68400 1-336): T3 sequence (P68400 1-336)
Experimental: as §2
Isothermal titration calorimetry (ITC) experiments were performed using a Malvern PEAQ-ITC microcalorimeter, at 25°C, with a 270 μl sample cell and a computer controlled microsyringe for titrant injections. CK2α (20–30 μM) and Ru4POM (200–400 μM) samples were in 25 mM Tris, 500 mM NaCl, pH = 8.5. After baseline stabilization, a further delay of 60 s was used before the first injection. In each individual titration, a starting Ru4POM injection of 0.4 μl in 0.8 s was followed by other 12 injections of 3 μl with a duration of 6 s each. A delay of 150 s was applied between each Ru4POM injection. Wiseman plot of integrated data was automatically obtained by software analysis (excluding the heat referred to the first 0.4 μl injection) and then it was fitted by theoretical binding curve using the one site model.

[6] = test system: endogenous CK2 in HEK-293T cells; assay: Endo-cellular CK2 activity assay (Akt1 phospho-Ser129 Western blot); format: cell-based, human
Experimental: HEK-293T cells (human embryo kidney fibroblasts) were cultured in an atmosphere containing 5% CO2, maintained in DMEM medium (Sigma), supplemented with 10% (v/v) fetal bovine serum (FBS), 2 mM L-glutamine, 100 U/ml penicillin, and […] streptomycin. Cell treatments with Ru4POM were performed in the culture medium. When used, the cationic transfection reagents PEI (Thermo Scientific) or JetOpitmus (Polyplus-transfection) were mixed with Ru4POM and incubated for 1 h at room temperature, before adding the mix to the cells. After 24 h cells were lysed as previously described ([Zanin et al., 2012]). Protein concentration was determined by the Bradford method.
Endo-cellular CK2 activity was evaluated by assessing the phosphorylation state of the CK2 substrate Akt phospho-Ser129 (Abcam) ([Ruzzene et al., 2010]). For this purpose, equal amounts of proteins from treated cells were loaded on 11% SDS-PAGE, blotted on Immobilon-P membranes (Millipore), processed in Western blot (WB), and detected by chemiluminescence.
Quantitation of the signal was obtained by chemiluminescence detection on ImageQuant LAS 500 (GE Healthcare Life Sciences) and analysis with Carestream Molecular Imaging software (Carestream).

CK2 [7] = molecular target: T4, CK2; conditions: number of kinases; ref Battistutta et al., 2011; cited from earlier work
[8] = parameters: method as in Prudent et al., 2008; conditions: ref Prudent et al., 2008; cited from earlier work

IC50 [1]: 0.0085 ± 0.0004 µM
Compound: (S,S)-(^ n Bu4N)4[γ-SiW10O36{(C16H9)SO2NH(CH2)3Si}2O] [TBA (L)Trp-SiW10]

IC50 [1]: > 1 µM
Compound: (NH4)12[Mo36(NO)4O108(H2O)16] [Mo36POM]

IC50 [3]: 0.00363 ± 9e-05 µM
IC50 (CK2 [4]): 0.0185 ± 0.00104 µM
IC50 (tetrameric CK2 (α2β2)): 0.00557 ± 0.00068 µM
mode of inhibition towards substrates (CK2 [5]; CK2-tide peptide and casein): competitive inhibition
CK2-TIDE Vmax (CK2 [5]; in presence of 5 nM Ru4POM, 100 μM ATP, ± SEM): 15019 ± 1635 cpm
CASEIN Vmax (CK2 [5]; in presence of 18 nM Ru4POM, 100 μM ATP, ± SEM): 75417 ± 20117 a.u.
IC50 [1]: 0.00363 ± 0.00017 µM
stoichiometry (CK2α; pH 8.5): 1.04 ± 0.02
ΔG (CK2α; pH 8.5): -7.763 ± 0.11 kcal/mol
ΔH (CK2α; pH 8.5): -7.885 ± 0.339 kcal/mol
−TΔS (CK2α; pH 8.5): 0.12 ± 0.581 kcal/mol
Kd (CK2α; pH 8.5, 25°C, one site model, two experiments, read-out: apparent mean KD): 2.09 ± 0.36 µM
cell permeability ([6]; inferred from lack of CK2 inhibition in treated cells): too small cell permeability
Compound: Na10[Ru4(H2O)4(μ-O)4(μ-OH)2(γ-SiW10O36)2] [Ru4POM]
stability in aqueous environment [2]: stability was confirmed; also recorded: stable
inhibition of CK2 activity (recombinant CK2α; NaCl 0.2 M, CK2-tide): 29%
inhibition of CK2 activity (recombinant CK2α; NaCl 0.5 M, CK2-tide): 22%
inhibition of CK2 activity (recombinant CK2α; pH 7.5, without NaCl, CK2-tide): 75%
inhibition of CK2 activity (recombinant CK2α; pH 8.5, CK2-tide): 66%
CK2 inhibition in intact cells ([6]; HEK-293T cells treated with the free compound): do not detect any CK2 inhibition
Akt1 phospho-Ser129 phosphorylation ([6]; HEK-293T, 10 μM Ru4POM, 24 h, combined with PEI or JetOptimus): reduced the phosphorylation of this site

IC50 [1]: 0.0128 ± 0.0017 µM
Compound: [γ-SiW10O36{(C16H9)SO2NH(CH2)3Si}2O]^4− [Na (D)Trp-SiW10]

Second part, the compound before the results:

Compound: [γ-SiW10O36{(C5H7N2OS)(CH2)4CONH(CH2)3Si}2O]^4− [Na Biotin-SiW10]
IC50 [1]: 0.0164 ± 0.0013 µM

Compound: O=C(O)c1ccc2c(c1)nc(Nc1cccc(Cl)c1)c1ccncc12 [CX-4945, silmitasertib]
other kinases inhibited with nanomolar activity (CK2 [7]): 12

Compound: [P2Mo18O62]^6−
chemical stability in an aqueous environment [8]: low chemical stability

Compound: (^ n Bu4N)3H[γ-SiW10O36{(C5H7N2OS)(CH2)4CONH(CH2)3Si}2O] [TBA Biotin-SiW10]
IC50 [1]: 0.0053 ± 0.0006 µM

Compound: [γ-SiW10O36{(C16H9)SO2NH(CH2)3Si}2O]^4− [Na (L)Trp-SiW10]
IC50 [1]: 0.0182 ± 0.0019 µM
